Laboratory results reported in US20140187594A1, “DIPHENYL ETHER COMPOUNDS FOR THE TREATMENT OF LIVER, LUNG DISORDERS, DIABETIC COMPLICATIONS AND CARDIOVASCULAR DISEASES” (ORCHID CHEMICALS AND PHARMACEUTICALS LTD, priority 2010, published 2014).

Columns and labels:
IL-6 = experiment: LPS induced serum IL-6 in vivo; parameters: species or system mice; details: 50 mg/kg/day oral, 10 days, LPS 400 μg/kg IP, FIG. 40
From the text: (§1) Based on the results obtained in the in-vitro studies, it can be concluded that Compounds A, B and C are moderately potent inhibitors of Aldose Reductase. […] At the end of the assay, cell lysates were probed with anti iNOS antibody. Compound of formula (A) inhibits the iNOS production in these cells (FIG. 38). […] Since iNOS is implicated in the pathology of diabetic complications, it is anticipated that Compound of formula (A) will have a protective effect in the development of neovascularization contributed by elevated iNOS. Inhibits LPS induced TNF-α and IL-6 Inhibition In Vivo: This study was undertaken when the mice are at 10-11 weeks in age. On Day 0 their body weights were measured and they were assigned to two groups of 6 mice each to get similar average group body weights. They were orally administered with either vehicle (deionized water, Group 1) or Compound of formula (A) (50 mg/kg; Group 2) daily between 9:30 and 10:30 AM for 10 days. The body weights were measured on day 3, 7 and 10 of the study before administration of vehicle or drug. On Day 10, the mice were administered LPS at 400 μg/kg, IP. After 1 hour they were orally administered with either vehicle or Compound of formula (A). […]
Serum IL-6 concentration for each group of mice is determined using the Quantikine Mouse IL-6 Immunoassay kit. […] The optical density of each well was read at 450 nm Microplate Reader (FIG. 40).

DIO mice = experiment: Insulin resistance (HOMA-IR) in diet induced obese mice; assay type: in vivo, C57BL/6 mice; details: 30 mg/kg for 28 days, FIG. 22
Method: The animal model with obesity with insulin resistance was developed by feeding 60 Kcal % high fat diet, which simulates several features of human obesity and insulin resistance. These features were treated as mentioned below. […] C57BL/6 male mice aged 6-8 weeks, and body weight ranges between 16-22 g were used. Animals were divided into two groups. First group (n=10) was treated as a normal control fed chow feed (Nutri Labe Rodent, Tetragon Chemie Pvt. Ltd., Bangalore) and the second group (n=25) fed 60 Kcal % high fat diet (HFD) (Research Diets, New Brunswick, N.J., Cat# D12492 with blue dye) for 120 days. At the end of induction period the animals were selected based on insulin resistance for further study. […] During this period, body weight and feed intake was recorded daily. […]
The parameters like Glucose, ALT, AST, TC, TG (Clinical chemistry analyzer Erba XL 300), insulin (Linco®-CA, Product code: EZRMI-13K) and TNFα (GE Healthcare, Amersham, UK. Product code: RPN2718) were measured using commercially available kits. NEFA was measured in serum using commercially available NEFA C kit (Product code No: 279-75401, Wako pure chemical industries ltd., Japan).

[1] = system: bleomycin induced lung fibrosis; experiment: Bleomycin induced lung fibrosis (prophylactic); assay type: in vivo, C57BL/6 mice; details: 100 mg/kg p.o., 7 days before and 14 days after bleomycin; FIGS. 26 & 27
Method: Female C57BL/6 mice were used in this study. Animals were divided into four groups based on their body weight. To induce fibrosis bleomycin was administered at 0.1 U/animal (volume 50 μL) intratracheally to Group II (Disease control), Group III and Group IV, whereas Group I (Normal control) received only saline. The bleomycin challenged Group III and Group IV animals were treated with pentoxifylline (20 mg/kg p.o.) and compound of formula (A) (100 mg/kg p.o.) respectively, whereas Group I and the bleomycin challenged Group II animals received vehicle for 7 days before and 14 days after bleomycin administration. Body weight, feed and liquid intake and mortality rate were recorded. At the end of the study, animals were bled and plasma was stored in deep freezer (−80° C.) for biochemical parameters estimation. Then, the animals were sacrificed and lung tissue harvested and weighed. Right lung tissue was stored in deep freezer (−80° C.) for expression study and drug concentration analysis. The left lung tissues was fixed in formalin (10%) by slow infusion, then immersed and preserved in formalin (10%) for histopathology examination.

[2] = target: T1, Rat lens Aldose reductase (Rattus norvegicus, UniProt P07943); experiment: Aldose reductase inhibitory activity; assay type: biochemical; details: rat lens enzyme, 0.2 mM NADPH, pH 6.2, 25° C.
T1 construct: Rat lens Aldose reductase is used; from tissue; host or cells: rat lens
Method: Rat lens Aldose reductase is used. Test compound and/or vehicle is preincubated with 3000 μg/ml enzyme (J. Enzyme Inhib. 1993, 7, 249-256; Biol. Pharm. Bull. 1994, 17, 458-459) and 0.2 mM NADPH in phosphate buffer pH 6.2 for 15 minutes at 25° C. The reaction is initiated by addition of 10 mM DL-glyceraldehyde and incubated for another 20 minutes. Determination of the amount of NADPH remained is read spectrophotometrically. Compounds are screened at 10 μM. Since enzyme activity may change from lot to lot, the concentration used will be adjusted if necessary.

iNOS = iNOS inhibition in LPS challenged cells (anti iNOS antibody); assay type: cell-based; details: 30 μM, one hour preincubation, LPS 1 μg/mL for 6 hours, FIG. 38
From the text: as §1, with “(A). After another 90 minutes, the mice were euthanized by carbon dioxide asphyxiation. Blood was collected by cardiac puncture and was processed to obtain serum.” for “(A).”

3T3-L1 fibroblasts = experiment: Adipogenesis in 3T3-L1 mouse fibroblast (oil red O staining); assay type: cell-based; details: 1 μM or 10 μM, 7 days
Method: 3T3-L1 fibroblasts were seeded at a concentration of 10,000 cells/well in 24 well tissue culture plates in a total volume of 1 mL Dulbecco's Modified Eagle Medium (DMEM media) containing 10% fetal bovine serum, penicillin and streptomycin. […] After every two days, the media contents were replaced with fresh media and the drug. This process was carried out for 7 days. After 7 days of treatment, the cells were fixed in 10% formalin for 1 hour at […], stained with oil red 0 solution for 10 minutes and washed 6 times with 1×PBS to remove the excess stain. The plates were dried and visualized under 40× objective using Nikon E200 microscope and the pictures were taken by Nikon DXM 1200C digital camera.

Structure (SMILES): COC(=O)[C@@H](N)Cc1ccc(Oc2ccc(CC3SC(=O)NC3=O)cc2)cc1 (stereo partly drawn) [Compound of formula (A), Methyl(2S)-2-amino-3-(4-{4-[(2,4-dioxo-1,3-thiazolidin-5-yl)methyl]phenoxy}phenyl)propanoate]
- Serum IL-6 level (IL-6): reduction
- HOMA-IR (DIO mice): improvement in HOMA-IR
- lung fibrosis formation (histopathology) [1]: significantly prevents fibrosis formation
- IC50 [2]: 4.07 µM
- iNOS production (iNOS): potent inhibitor of iNOS with activity superior to Rosiglitazone at equal concentrations
- adipogenesis (intracellular lipids stained with oil red O) (3T3-L1 fibroblasts): did not induce adipogenesis
